Tests used:
[1] = test system: Ad2.1; assay: In vitro splicing (IVS) assay, qPCR-IVS-ATS, Ad2.1 substrate, HELA.2; type: biochemical; conditions: payload, read-out: qPCR-IVS-ATS GMean IC50 (nM) Ad2.1 HELA.2
[2] = test system: THP1.1; assay: Herboxidiene splicing modulator cell potency, CTGlo-ATS, THP1.1, 72 h; type: cell-based; conditions: payload; for GI50: THP1.1, read-out: CTGIo-ATS GMean GI50 (nM) 72 h THP1.1
[3] = test system: NCIH1650.1; assay: Herboxidiene splicing modulator cell potency, CTGlo-ATS, NCIH1650.1, 72 h; type: cell-based; conditions: payload; for GI50: NCIH1650.1, read-out: CTGIo-ATS GMean GI50 (nM) 72 h NCIH1650.1
[4] = test system: Ad2.2 pre-mRNA; assay: In vitro splicing (IVS) assay with HeLa nuclear extract, RT-qPCR of spliced product; type: biochemical; conditions: payload, HELA.2, read-out: qPCR-IVS-ATS GMean IC50 (nM) Ad2.2 HELA.2
Procedure: 2.1 In Vitro Splicing (IVS)
To evaluate payload activity in a cell-free system, an in vitro splicing assay was performed. The payloads were incubated with nuclear extracts and pre-mRNA substrate minigenes.
HeLa nuclear extract preparation: HeLa S3 cell pellets were resuspended in hypotonic buffer (10 mM HEPES pH 7.9, 1.5 mM MgCl2, 10 mM KCl, 0.2 mM PMSF, 0.5 mM DTT) and the suspension was brought up to a total of 5 packed cell volume (PCV). After centrifugation, the supernatant was discarded, and the cells were brought up to 3 PCV with hypotonic buffer and incubated on ice for 10 min. Cells were lysed using a dounce homogenizer and then centrifuged. The supernatant was discarded, and the pellet was resuspended with […] packed nuclear volume (PNV) of low salt buffer (20 mM HEPES pH 7.9, 1.5 mM MgCl2, 20 mM KCl, 0.2 mM EDTA, 25% glycerol, 0.2 mM PMSF, 0.5 mM DTT), followed by 1/2 PNV of high salt buffer (same as low salt buffer except 1.4 M KCl). The nuclei were gently mixed for 30 min before centrifuging. The supernatant (nuclear extract) was then dialyzed into storage buffer (20 mM HEPES pH 7.9, 100 mM KCl, 0.2 mM EDTA, 20% glycerol, 0.2 mM PMSF, 0.5 mM DTT). Protein concentration was determined using NanoDrop 8000 UV-Vis spectrophotometer (ThermoFisher Scientific).
IVS: All Ad2-derived sequences (Pellizzoni et al. (1998) Cell 95(5):615-24) were cloned into pcDNA3.1(+) vector (Promega) using 5′ EcoRI and 3′ Xbal restriction sites. The plasmids were linearized using Xbal and used as DNA templates in in vitro transcription reactions. The FtzΔi intron-less plasmid (Luo and Reed (1999) 96(26):14937-42) was linearized using EcoRI. All RNAs were in vitro transcribed and then purified using MEGAScript T7 (Invitrogen) and MegaClear (Invitrogen) kits, respectively. For splicing reactions using Ad2 variant pre-mRNAs, […] were prepared using 8 μg nuclear extracts prepared from HeLa S3, 2 ng pre-mRNA, 0.2 ng FTZΔi, and varying concentrations of compounds or DMSO. After a 15 min pre-incubation at 30° C., 1 μL splicing activation buffer (0.5 mM ATP, 20 mM creatine phosphate, 1.6 mM MgCl2) was added, and the reactions were incubated for 90 min at 30° C. The reactions were then quenched with 13 μL DMSO, and 25 nL was used for RT-qPCR. RT-qPCR reactions were prepared using TaqMan RNA-to-CT 1-step kit (Life Technologies), RNA from splicing reactions, Ad2 (forward: […]; reverse: […]; probe: CTGTTGGGCTCGCGGTTG) and Ftz (forward: […]; reverse: […]; probe: […]) mRNA primer-probe sets. Prism 7 (Graphpad) was used for non-linear regression curve fitting of the formed spliced product and normalized to the control (DMSO) sample.

Row | SMILES | IC50 [1] [nM] | CTGIo-ATS GMean LD50 (nM) 72 h THP1.1 [2] [nM] | CTGIo-ATS Mean MinResponse % 72 h THP1.1 [2] [%] | GI50 [2] [nM] | CTGIo-ATS GMean LD50 (nM) 72 h NCIH1650.1 [3] [nM] | CTGIo-ATS Mean MinResponse % 72 h NCIH1650.1 [3] [%] | GI50 [3] [nM] | IC50 [4] [nM]
1 | CO[C@H]([C@@H](C)[C@H]1O[C@]1(C)C[C@H](C)/C=C/C=C(\C)[C@H]1O[C@@H](CNC(=O)CCOCCOC(=O)N2CCNCC2)CC[C@@H]1C)[C@@H](C)O [Compound H8, 2-(3-((((2R,5S,6S)-6-((S,2E,4E)-7-((2R,3R)-3-((2R,3R,4R)-4-hydroxy-3-methoxypentan-2-yl)-2-methyloxiran-2-yl)-6-methylhepta-2,4-dien-2-yl)-5-methyltetrahydro-2H-pyran-2-yl)methyl)amino)-3-oxopropoxy)ethyl piperazine-1-carboxylate] | 12.9 | 11.851 | −102.030 | 1.22 | >10000 | 17.053 | 1.1 | 12.9
2 | CNC1CCN(C(=O)OCCCCCC(=O)NC[C@H]2CC[C@H](C)[C@@H](/C(C)=C/C=C/[C@@H](C)C[C@@]3(C)O[C@@H]3[C@H](C)[C@@H](OC)[C@@H](C)O)O2)C1 (stereo partly drawn) [Compound H7, 6-((((2R,5S,6S)-6-((S,2E,4E)-7-((2R,3R)-3-((2R,3R,4R)-4-hydroxy-3-methoxypentan-2-yl)-2-methyloxiran-2-yl)-6-methylhepta-2,4-dien-2-yl)-5-methyltetrahydro-2H-pyran-2-yl)methyl)amino)-6-oxohexyl 3-(methylamino)pyrrolidine-1-carboxylate] | 14.5 | 6.756 | −99.328 | 0.65 | >10000 | 5.754 | 0.772 | 12.1
3 | CNC1CCN(C(=O)O[C@@H]2C[C@H](CC(=O)O)O[C@H](/C(C)=C/C=C/[C@@H](C)C[C@@]3(C)O[C@@H]3[C@H](C)[C@@H](OC)[C@@H](C)O)[C@H]2C)C1 (stereo partly drawn) [Compound H3, 2-((2R,4R,5S,6S)-6-((S,2E,4E)-7-((2R,3R)-3-((2R,3R,4R)-4-hydroxy-3-methoxypentan-2-yl)-2-methyloxiran-2-yl)-6-methylhepta-2,4-dien-2-yl)-5-methyl-4-((3-(methylamino)pyrrolidine-1-carbonyl)oxy)tetrahydro-2H-pyran-2-yl)acetic acid] | 562 | 478.332 | −92.943 | 54.6 | >10000 | 19.182 | 115 | 35.2
4 | CNC1CCN(C(=O)OCCOCCC(=O)NC[C@H]2CC[C@H](C)[C@@H](/C(C)=C/C=C/[C@@H](C)C[C@@]3(C)O[C@@H]3[C@H](C)[C@@H](OC)[C@@H](C)O)O2)C1 (stereo partly drawn) [Compound H10, 2-(3-((((2R,5S,6S)-6-((S,2E,4E)-7-((2R,3R)-3-((2R,3R,4R)-4-hydroxy-3-methoxypentan-2-yl)-2-methyloxiran-2-yl)-6-methylhepta-2,4-dien-2-yl)-5-methyltetrahydro-2H-pyran-2-yl)methyl)amino)-3-oxopropoxy)ethyl 3-(methylamino)pyrrolidine-1-carboxylate] | 21.7 | 21.021 | −98.789 | 2.06 | >10000 | 9.194 | 3.04 | 16.5

Reference: US12514928B2, “Herboxidiene antibody-drug conjugates and methods of use” (Eisai R&D Management Co., Ltd., priority 2018, dated 2026)
